The values below come from ChEMBL document CHEMBL5291721, “A preclinical secondary pharmacology resource illuminates target-adverse drug reaction associations of marketed drugs” (Nat Commun, 2023).

Targets include Cannabinoid receptor 1 (Homo sapiens, UniProt P21554); Glucagon receptor (Homo sapiens, UniProt P47871); Estrogen receptor beta (Homo sapiens, UniProt Q92731); D(1A) dopamine receptor (Homo sapiens, UniProt P21728); Substance-P receptor (Homo sapiens, UniProt P25103).
Test [1] addresses T1, Mu-type opioid receptor (Homo sapiens, UniProt P35372). The test can be described thus: biochemical. It counts as functional.
The next test has as its target T2, Estrogen receptor (Homo sapiens, UniProt P03372).
T2 sequence (P03372 whole entry): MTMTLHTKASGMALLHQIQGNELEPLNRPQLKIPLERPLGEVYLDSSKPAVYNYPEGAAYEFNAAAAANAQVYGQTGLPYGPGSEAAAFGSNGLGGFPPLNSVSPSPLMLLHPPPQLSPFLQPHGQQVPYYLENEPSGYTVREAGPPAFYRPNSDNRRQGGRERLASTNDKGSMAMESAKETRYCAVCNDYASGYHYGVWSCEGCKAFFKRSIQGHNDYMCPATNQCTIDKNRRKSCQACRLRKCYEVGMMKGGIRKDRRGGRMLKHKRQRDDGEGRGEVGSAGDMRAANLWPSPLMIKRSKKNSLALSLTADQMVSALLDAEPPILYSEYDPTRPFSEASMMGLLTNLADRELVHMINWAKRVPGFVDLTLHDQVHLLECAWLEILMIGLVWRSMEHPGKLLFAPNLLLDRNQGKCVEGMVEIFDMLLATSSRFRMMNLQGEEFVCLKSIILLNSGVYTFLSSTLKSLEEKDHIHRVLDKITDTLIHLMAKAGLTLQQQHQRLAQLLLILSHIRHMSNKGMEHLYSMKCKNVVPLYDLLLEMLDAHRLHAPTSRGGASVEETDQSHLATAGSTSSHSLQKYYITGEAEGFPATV

Test [2] addresses T1, Mu-type opioid receptor.
For test [3], the target named is 5-hydroxytryptamine receptor 2B (Homo sapiens, UniProt P41595).
Chain of 5-hydroxytryptamine receptor 2B (P41595 whole entry): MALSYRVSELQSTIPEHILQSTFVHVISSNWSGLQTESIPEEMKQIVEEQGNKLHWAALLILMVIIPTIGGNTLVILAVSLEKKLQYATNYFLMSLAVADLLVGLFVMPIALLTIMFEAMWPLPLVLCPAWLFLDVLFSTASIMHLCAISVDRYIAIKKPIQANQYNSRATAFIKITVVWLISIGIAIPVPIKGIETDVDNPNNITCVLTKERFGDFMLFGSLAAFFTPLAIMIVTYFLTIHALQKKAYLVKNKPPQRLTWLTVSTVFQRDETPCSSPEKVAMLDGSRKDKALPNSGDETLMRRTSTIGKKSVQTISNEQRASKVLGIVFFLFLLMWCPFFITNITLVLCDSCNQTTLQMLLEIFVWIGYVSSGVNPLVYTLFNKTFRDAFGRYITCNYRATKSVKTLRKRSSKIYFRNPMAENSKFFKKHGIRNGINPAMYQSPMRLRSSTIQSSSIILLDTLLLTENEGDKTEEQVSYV
For test [4], the target named is T3, Neuropeptide Y receptor type 2 (Homo sapiens, UniProt P49146).
T3 sequence (P49146 whole entry): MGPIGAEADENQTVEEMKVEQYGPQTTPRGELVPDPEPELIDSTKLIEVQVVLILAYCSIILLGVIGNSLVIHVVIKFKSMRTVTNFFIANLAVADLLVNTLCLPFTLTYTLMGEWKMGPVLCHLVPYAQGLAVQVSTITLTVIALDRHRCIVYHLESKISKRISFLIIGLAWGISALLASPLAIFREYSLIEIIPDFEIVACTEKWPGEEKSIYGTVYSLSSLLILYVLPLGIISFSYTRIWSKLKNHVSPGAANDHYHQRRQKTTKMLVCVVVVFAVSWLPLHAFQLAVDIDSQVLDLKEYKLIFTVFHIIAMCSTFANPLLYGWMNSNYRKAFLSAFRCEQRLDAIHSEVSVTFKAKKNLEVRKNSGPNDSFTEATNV

Test [5] deals with T4, Gastric inhibitory polypeptide receptor (Homo sapiens, UniProt P48546).
T4 sequence (P48546 whole entry): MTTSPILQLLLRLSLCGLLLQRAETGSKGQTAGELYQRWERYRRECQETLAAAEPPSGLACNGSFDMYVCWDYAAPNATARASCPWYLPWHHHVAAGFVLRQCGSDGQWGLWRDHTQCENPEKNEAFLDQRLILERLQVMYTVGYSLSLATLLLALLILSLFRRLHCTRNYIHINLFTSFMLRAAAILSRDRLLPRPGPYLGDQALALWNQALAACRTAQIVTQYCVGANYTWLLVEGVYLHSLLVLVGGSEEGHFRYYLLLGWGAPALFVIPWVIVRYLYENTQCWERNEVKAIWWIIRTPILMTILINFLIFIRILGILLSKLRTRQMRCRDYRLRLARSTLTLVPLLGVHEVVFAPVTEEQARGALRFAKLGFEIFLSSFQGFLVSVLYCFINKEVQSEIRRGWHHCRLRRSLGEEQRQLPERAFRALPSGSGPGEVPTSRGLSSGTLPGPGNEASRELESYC

The target in test [6] is Beta-3 adrenergic receptor (Homo sapiens, UniProt P13945).
In test [7] the target is Voltage-dependent N-type calcium channel subunit alpha-1B (Rattus norvegicus, UniProt Q02294). In kind it is functional.
Chain of Voltage-dependent N-type calcium channel subunit alpha-1B (Q02294 whole entry): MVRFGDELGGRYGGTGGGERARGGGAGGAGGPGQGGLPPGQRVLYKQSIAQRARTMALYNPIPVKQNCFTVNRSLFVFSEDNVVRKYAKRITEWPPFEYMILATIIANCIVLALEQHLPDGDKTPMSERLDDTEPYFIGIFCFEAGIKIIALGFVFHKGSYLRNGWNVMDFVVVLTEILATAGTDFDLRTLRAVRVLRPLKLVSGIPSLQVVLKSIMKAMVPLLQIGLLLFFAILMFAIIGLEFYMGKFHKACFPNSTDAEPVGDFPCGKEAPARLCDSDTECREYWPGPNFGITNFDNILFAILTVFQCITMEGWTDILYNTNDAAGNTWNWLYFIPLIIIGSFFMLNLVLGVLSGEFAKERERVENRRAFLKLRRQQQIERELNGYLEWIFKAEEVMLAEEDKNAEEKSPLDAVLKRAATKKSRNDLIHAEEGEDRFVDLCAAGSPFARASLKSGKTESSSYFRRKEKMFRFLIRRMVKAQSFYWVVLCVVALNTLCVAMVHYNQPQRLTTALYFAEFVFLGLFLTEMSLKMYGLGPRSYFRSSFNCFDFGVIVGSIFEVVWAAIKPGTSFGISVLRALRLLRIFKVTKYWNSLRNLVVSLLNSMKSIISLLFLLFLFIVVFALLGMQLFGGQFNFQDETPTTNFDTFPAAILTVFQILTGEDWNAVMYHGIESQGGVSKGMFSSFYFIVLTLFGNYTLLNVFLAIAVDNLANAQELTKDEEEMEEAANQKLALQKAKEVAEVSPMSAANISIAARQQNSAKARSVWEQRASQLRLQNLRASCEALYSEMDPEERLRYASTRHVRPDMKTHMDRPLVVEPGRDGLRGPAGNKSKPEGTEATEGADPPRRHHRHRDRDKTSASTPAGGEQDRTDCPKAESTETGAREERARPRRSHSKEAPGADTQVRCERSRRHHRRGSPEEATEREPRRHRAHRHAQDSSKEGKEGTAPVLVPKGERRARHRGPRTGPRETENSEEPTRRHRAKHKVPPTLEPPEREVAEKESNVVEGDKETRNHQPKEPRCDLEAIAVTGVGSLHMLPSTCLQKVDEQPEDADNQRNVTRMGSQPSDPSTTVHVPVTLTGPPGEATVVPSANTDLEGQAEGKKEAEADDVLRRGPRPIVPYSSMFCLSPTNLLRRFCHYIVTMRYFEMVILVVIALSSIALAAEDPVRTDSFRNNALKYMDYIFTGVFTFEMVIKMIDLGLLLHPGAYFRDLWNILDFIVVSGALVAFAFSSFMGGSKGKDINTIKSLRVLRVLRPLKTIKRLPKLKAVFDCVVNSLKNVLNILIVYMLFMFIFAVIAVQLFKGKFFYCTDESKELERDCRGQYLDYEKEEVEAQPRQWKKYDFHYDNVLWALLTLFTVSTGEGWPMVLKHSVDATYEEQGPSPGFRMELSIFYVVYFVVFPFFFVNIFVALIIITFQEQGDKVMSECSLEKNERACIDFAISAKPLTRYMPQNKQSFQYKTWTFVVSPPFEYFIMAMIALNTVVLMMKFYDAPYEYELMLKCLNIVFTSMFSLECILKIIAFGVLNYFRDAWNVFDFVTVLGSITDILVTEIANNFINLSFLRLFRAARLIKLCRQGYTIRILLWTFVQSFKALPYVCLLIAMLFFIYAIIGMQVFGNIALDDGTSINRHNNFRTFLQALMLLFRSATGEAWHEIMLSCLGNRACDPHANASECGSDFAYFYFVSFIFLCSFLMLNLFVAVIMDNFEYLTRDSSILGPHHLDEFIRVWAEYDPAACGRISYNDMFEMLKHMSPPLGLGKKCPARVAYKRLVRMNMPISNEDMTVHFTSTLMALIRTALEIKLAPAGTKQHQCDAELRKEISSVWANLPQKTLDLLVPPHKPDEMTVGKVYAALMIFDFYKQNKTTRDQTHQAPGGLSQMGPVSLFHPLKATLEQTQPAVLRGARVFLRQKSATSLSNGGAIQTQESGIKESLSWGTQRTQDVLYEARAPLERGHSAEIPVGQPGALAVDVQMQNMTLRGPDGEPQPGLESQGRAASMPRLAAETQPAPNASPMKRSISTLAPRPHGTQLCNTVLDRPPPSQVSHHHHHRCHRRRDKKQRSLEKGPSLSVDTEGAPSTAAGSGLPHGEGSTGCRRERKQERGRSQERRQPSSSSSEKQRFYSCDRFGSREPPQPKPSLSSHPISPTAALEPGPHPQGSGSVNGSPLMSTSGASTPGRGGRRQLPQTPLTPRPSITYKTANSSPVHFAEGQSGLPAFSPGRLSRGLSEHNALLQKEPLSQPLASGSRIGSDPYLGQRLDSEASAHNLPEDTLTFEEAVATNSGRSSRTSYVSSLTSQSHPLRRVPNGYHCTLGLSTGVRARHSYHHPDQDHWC
The target in test [8] is T5, Corticotropin-releasing factor receptor 1 (Homo sapiens, UniProt P34998).
T5 sequence (P34998 whole entry): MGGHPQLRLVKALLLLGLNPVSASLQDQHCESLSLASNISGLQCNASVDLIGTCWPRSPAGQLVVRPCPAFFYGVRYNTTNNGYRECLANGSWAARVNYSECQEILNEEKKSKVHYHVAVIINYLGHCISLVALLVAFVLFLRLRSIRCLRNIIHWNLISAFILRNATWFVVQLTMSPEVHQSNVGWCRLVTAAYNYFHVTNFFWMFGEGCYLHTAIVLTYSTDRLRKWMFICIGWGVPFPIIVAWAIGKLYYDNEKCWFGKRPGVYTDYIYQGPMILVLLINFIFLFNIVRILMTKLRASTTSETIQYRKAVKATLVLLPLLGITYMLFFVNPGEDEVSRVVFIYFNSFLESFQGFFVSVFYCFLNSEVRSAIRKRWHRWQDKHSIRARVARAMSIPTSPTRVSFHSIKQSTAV

For test [9], the target named is T6, Alpha-2A adrenergic receptor (Homo sapiens, UniProt P08913).
T6 sequence (P08913 whole entry): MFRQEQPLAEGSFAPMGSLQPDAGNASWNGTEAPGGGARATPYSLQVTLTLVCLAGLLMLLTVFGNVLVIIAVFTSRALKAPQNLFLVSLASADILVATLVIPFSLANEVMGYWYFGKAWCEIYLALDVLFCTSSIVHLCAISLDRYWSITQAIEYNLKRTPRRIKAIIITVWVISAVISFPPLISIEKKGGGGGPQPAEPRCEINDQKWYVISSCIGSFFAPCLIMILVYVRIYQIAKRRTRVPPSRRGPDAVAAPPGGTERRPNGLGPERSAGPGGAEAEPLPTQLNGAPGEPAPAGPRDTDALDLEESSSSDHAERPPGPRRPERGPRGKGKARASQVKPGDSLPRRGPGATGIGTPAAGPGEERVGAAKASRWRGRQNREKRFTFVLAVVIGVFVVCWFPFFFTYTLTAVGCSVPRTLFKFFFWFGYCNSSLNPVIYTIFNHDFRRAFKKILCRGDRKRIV
Also: assay procedure not described here.

Chain of Substance-P receptor (P25103 whole entry): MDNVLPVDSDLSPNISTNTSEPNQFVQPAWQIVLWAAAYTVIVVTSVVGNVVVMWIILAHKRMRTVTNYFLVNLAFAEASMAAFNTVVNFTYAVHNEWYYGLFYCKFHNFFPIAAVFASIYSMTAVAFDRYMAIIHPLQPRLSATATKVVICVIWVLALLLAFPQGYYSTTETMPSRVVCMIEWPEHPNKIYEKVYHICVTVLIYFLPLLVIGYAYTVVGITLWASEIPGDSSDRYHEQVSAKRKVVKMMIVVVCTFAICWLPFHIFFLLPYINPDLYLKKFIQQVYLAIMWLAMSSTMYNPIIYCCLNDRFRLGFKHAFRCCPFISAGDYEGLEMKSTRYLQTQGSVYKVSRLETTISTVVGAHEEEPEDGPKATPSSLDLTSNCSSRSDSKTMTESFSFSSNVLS
Chain of Glucagon receptor (P47871 whole entry): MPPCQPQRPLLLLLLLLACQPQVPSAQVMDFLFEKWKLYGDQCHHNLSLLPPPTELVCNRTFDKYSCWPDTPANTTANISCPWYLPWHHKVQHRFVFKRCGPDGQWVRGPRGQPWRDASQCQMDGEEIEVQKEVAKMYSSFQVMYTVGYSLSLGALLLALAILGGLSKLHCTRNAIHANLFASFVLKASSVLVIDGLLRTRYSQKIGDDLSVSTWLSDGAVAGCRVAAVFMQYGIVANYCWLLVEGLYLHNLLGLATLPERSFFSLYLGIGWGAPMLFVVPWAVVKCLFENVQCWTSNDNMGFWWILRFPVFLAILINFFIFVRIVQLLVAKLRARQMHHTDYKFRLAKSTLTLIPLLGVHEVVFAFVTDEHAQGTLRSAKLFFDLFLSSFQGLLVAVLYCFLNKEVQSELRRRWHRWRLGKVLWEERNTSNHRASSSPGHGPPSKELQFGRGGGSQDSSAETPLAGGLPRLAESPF
Chain of Estrogen receptor beta (Q92731 whole entry): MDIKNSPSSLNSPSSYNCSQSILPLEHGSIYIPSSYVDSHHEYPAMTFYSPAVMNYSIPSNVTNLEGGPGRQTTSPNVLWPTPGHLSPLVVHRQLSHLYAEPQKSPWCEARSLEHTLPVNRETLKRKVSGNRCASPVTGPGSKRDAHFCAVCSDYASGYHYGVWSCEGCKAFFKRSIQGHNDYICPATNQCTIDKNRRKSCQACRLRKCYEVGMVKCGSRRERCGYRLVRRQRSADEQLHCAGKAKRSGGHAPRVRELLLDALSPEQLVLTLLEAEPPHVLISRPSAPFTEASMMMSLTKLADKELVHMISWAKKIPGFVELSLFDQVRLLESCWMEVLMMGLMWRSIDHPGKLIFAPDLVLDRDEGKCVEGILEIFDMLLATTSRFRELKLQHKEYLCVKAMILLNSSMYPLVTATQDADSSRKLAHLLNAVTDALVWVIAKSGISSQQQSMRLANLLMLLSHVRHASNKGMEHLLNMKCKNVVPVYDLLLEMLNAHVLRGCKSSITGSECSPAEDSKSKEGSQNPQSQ
Chain of D(1A) dopamine receptor (P21728 whole entry): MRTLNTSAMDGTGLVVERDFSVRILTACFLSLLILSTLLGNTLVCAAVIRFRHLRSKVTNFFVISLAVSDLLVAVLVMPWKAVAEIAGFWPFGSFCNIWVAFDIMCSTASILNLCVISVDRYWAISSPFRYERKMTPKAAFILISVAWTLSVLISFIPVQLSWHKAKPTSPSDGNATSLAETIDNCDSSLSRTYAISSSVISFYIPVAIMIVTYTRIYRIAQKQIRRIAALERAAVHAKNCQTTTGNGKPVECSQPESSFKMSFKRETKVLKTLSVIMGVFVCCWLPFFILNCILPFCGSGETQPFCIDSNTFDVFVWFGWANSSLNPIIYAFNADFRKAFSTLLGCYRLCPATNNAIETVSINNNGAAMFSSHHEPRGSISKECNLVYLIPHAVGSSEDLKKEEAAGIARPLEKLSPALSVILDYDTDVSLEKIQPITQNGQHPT
T1 sequence (P35372 whole entry): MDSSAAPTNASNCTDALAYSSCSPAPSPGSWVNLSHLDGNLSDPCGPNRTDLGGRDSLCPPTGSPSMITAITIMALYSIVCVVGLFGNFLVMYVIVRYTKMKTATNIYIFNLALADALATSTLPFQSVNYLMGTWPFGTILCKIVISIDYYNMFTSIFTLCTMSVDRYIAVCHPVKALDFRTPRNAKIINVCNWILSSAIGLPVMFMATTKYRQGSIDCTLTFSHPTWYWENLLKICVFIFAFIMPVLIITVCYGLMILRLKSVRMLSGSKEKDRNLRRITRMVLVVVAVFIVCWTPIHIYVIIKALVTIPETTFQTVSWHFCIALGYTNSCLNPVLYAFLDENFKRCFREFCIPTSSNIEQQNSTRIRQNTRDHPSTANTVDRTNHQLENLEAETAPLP

Take `CC[C@@H](C(N)=O)N1CCCC1=O`: the AC50 at Mu-type opioid receptor [1] and on Estrogen receptor was above 30 µM each time.
In the case of `CCC(CC)(CC(=O)Nc1cccc(/C=C/c2nc(C3CCC3)cs2)c1)C(=O)O`, on Estrogen receptor, the AC50 (commonly the midpoint of the concentration-response curve, whichever way the signal moves) was above 30 µM.
For `CCCC1O[C@@H]2C[C@H]3[C@@H]4CCC5=CC(=O)C=C[C@]5(C)[C@H]4[C@@H](O)C[C@]3(C)[C@]2(C(=O)CO)O1` (stereo not given in full) [BUDESONIDE], the results for the AC50 on Mu-type opioid receptor [2] and at Cannabinoid receptor 1 were above 30 µM and above 10 µM, respectively.
Regarding `C=CCN1C[C@H](C(=O)N(CCCN(C)C)C(=O)NCC)C[C@@H]2c3cccc4[nH]cc(c34)C[C@H]21` [CABERGOLINE], the AC50 is 0.0086 µM in test [3], above 10 µM at Estrogen receptor and above 30 µM at Mu-type opioid receptor [2].
With `CN1CCN(C2=Nc3ccccc3Sc3ccc(Cl)cc32)CC1` [CLOTHIAPINE], on Mu-type opioid receptor [1], the AC50 was 11 µM.
For the compound `CN(C)CCC=C1c2ccccc2C=Cc2ccccc21` [CYCLOBENZAPRINE], the AC50 in test [4] was above 30 µM; in test [5] it was above 30 µM; in test [6] it was above 30 µM; in test [7], above 10 µM; on Estrogen receptor it was above 30 µM; at Glucagon receptor, above 30 µM. The AC50 at Mu-type opioid receptor [2] was above 10 µM; at Cannabinoid receptor 1, above 10 µM; in test [8] it was above 30 µM; on Estrogen receptor beta it was above 30 µM.
For `CCOc1ccc(Cc2cc([C@@H]3O[C@H](CO)[C@@H](O)[C@H](O)[C@H]3O)ccc2Cl)cc1` [DAPAGLIFLOZIN], the AC50 in test [9] was 8.66 µM; in test [6], above 30 µM; in [7] it was above 10 µM; in test [3] it was above 10 µM; on Estrogen receptor, above 30 µM; at D(1A) dopamine receptor, above 10 µM. In addition, the AC50 is above 30 µM on Mu-type opioid receptor [2] and above 10 µM at Cannabinoid receptor 1.
In the case of `CN(C)CC/C=C1\c2ccccc2CSc2ccccc21` [DOTHIEPIN], the AC50 on Mu-type opioid receptor [1] and on Estrogen receptor was above 30 µM each time.
Turning to `COc1ccc(C(=O)Nc2ccccc2CCC2CCCCN2C)cc1` (stereo not given) [ENCAINIDE], the concentration at half-maximal activity (AC50) in [4] is above 30 µM; in test [5] it was above 30 µM; in test [9] it was above 10 µM; in test [6], above 30 µM; in test [7], above 10 µM; in test [3] it was 3.66 µM. Further, the AC50 at Estrogen receptor was above 30 µM; on Glucagon receptor, above 30 µM; on D(1A) dopamine receptor, above 10 µM; on Mu-type opioid receptor [2] it was above 30 µM; at Cannabinoid receptor 1, above 10 µM; on Substance-P receptor it was above 10 µM. The AC50 (in test [8]; at Estrogen receptor beta) was above 30 µM each time.
Regarding `O=[N+]([O-])O[C@@H]1CO[C@H]2[C@@H]1OC[C@@H]2O` [ISOSORBIDE MONONITRATE], the AC50 in [4] is above 30 µM; in test [5], above 30 µM; in test [9], above 10 µM; in test [6] it was above 30 µM; in test [7] it was above 10 µM; in test [3] it was above 10 µM. Further, the AC50 at Estrogen receptor is above 30 µM; on Glucagon receptor, above 30 µM; at D(1A) dopamine receptor, above 10 µM; on Mu-type opioid receptor [2], above 30 µM; at Cannabinoid receptor 1 it was above 10 µM; at Substance-P receptor it was above 10 µM. Also, the AC50 (in test [8]; at Estrogen receptor beta) was above 30 µM throughout.
Consider `COc1cc2nc(N3CCN(C(=O)c4ccco4)CC3)nc(N)c2cc1OC` [PRAZOSIN], for which the AC50 is above 30 µM in [4]; above 30 µM in test [5]; above 30 µM at Mu-type opioid receptor [1]; above 30 µM in test [6]; above 10 µM in [7]; 2.57 µM in test [3]. For the same compound, the AC50 was above 30 µM at Estrogen receptor; above 30 µM at Glucagon receptor; above 10 µM on D(1A) dopamine receptor; 4.1 µM on Mu-type opioid receptor [2]; above 10 µM on Cannabinoid receptor 1; above 10 µM at Substance-P receptor. Moreover, the AC50 (in test [8]; on Estrogen receptor beta) was above 30 µM throughout.
As to `O=[N+]([O-])c1cn2c(n1)OC[C@@H](OCc1ccc(OC(F)(F)F)cc1)C2` [PRETOMANID], the AC50 in [4] is above 30 µM; in test [9], above 10 µM; in test [6] it was above 30 µM; in [7], above 10 µM; in test [3], above 10 µM; at Glucagon receptor, above 30 µM. Further, the AC50 at D(1A) dopamine receptor, on Mu-type opioid receptor [2] and at Substance-P receptor was above 10 µM each time.
For the compound `CCCCCNC(=N)N/N=C/c1c[nH]c2ccc(OC)cc12` [TEGASEROD], the AC50 in test [4] was above 30 µM; in test [5], above 30 µM; at Mu-type opioid receptor [1], above 30 µM; in test [9] it was 0.31 µM; in test [6], 6.08 µM; in test [3], 0.0206 µM. Besides, the AC50 at Glucagon receptor is above 30 µM; on D(1A) dopamine receptor it was 0.942 µM; at Mu-type opioid receptor [2], 2.8 µM; at Cannabinoid receptor 1, 10 µM; at Substance-P receptor it was above 10 µM; in test [8], above 30 µM. This compound also registered an AC50 on Estrogen receptor beta above 30 µM.
On Mu-type opioid receptor [1], `COC1=C(OC)C(=O)C(C/C=C(\C)CC/C=C(\C)CC/C=C(\C)CC/C=C(\C)CC/C=C(\C)CC/C=C(\C)CC/C=C(\C)CC/C=C(\C)CC/C=C(\C)CCC=C(C)C)=C(C)C1=O` [UBIDECARENONE] came in with an AC50 above 30 µM.
In the case of `CCOc1ccccc1OCC1CNCCO1` (stereo not given) [VILOXAZINE], the AC50 in test [4] was above 30 µM; in test [5], above 30 µM; in test [9] it was above 10 µM; in [6] it was above 30 µM; in test [7], above 10 µM; in [3] it was 2.34 µM. Also, the AC50 at Estrogen receptor is above 30 µM; at Glucagon receptor, above 30 µM; on D(1A) dopamine receptor, above 10 µM; on Mu-type opioid receptor [2], above 10 µM; on Cannabinoid receptor 1 it was above 10 µM; on Substance-P receptor, above 10 µM. Besides, the AC50 (in [8]; on Estrogen receptor beta) was above 30 µM throughout.
In the case of `CN(C)CCc1c[nH]c2ccc(C[C@H]3COC(=O)N3)cc12` [ZOLMITRIPTAN], the AC50 on Mu-type opioid receptor [1] and on Estrogen receptor was above 30 µM in each case.
